{
  "source": "patent US20230312652A1",
  "about": "“NOVEL PEPTIDES AND USES THEREOF” (Aarhus Universitet, priority 2020, published 2023)",
  "key": {"CREB [1]": {"system": "CREB", "experiment": "CREB activation (phosphorylation on serine 133) in wild-type cortical neurons, western blotting", "format": "cell-based, mouse", "conditions": "20 minutes, 7 days in vitro", "experimental": "(§1) To assess the ability of peptides P1, P2 and P6, respectively, to activate transcription factor CREB, cortical neurons were isolated from p0 wild-type mice and seeded in a density of 500.000 per well. After 7 days in vitro the neurons were stimulated with the different peptide variants at 1 uM in neurobasal A media and incubated at 37° C. and 5% C02 for 20 minutes. Hereafter, the neurons were lysed in lysis buffer containing DTT and cOmplete cocktail protease inhibitor and subsequently sonicated to disrupt the nuclear membrane. The phosphorylation of CREB on serine 133 was validated by western blotting normalized to beta-actin. As control, cells were stimulated with a scrambled peptide (Scr). Student's t-test was used for statistical analysis.\nas §1, with “The” for “To assess the”, “peptide P1” for “peptides P1, P2”, “a linear peptide analog of P1 with acetylated N- and amidated C-terminals (referred to as LP1)” for “P6, respectively,”, “CREB was assessed. Cortical” for “CREB, cortical”, “20 nM” for “1 uM”, “CO2” for “C02”"}, "CREB [2]": {"system": "CREB", "experiment": "CREB activation in striatum and hippocampus of wild-type mice after IV injection", "format": "in vivo, mouse", "conditions": "0.26 mg/kg IV, 1 hour after injection", "experimental": "To assess this, 8 weeks old wild-type mice were injected intravenously with either 0.26 mg/kg of peptide P1 or LP1 dissolved in saline. 1 hour after the injection, the mice were sacrificed by cervical dislocation and striatal tissue was isolated by dissection and immediately lysed using a TissueLyser in lysis buffer containing cOmplete and DTT. The samples were subsequently homogenized by sonication. The phosphorylation of CREB on serine 133 was subsequently validated by western blotting. The levels of phosphorylated CREB were normalized to the corresponding beta-actin levels. Student's t-test was used for statistical analysis."}, "cortical neurons": {"system": "cortical neurons", "experiment": "Survival of wild-type cortical neurons, MTT assay", "format": "cell-based, mouse", "conditions": "for relative survival compared to control: 1 uM on DIV7, DIV9 and DIV11, MTT at DIV12", "experimental": "Cortical neurons were isolated from p0 wild-type mice and seeded in a density of 50.000 in a 96-well plate pre-coated with poly-L and laminin and incubated at 37° C. in a 5% C02 atmosphere. At 7 days in vitro (DIV7) the neurons were treated by changing half the media with neurobasal A with B27 containing the peptides (P2, P4 or P6) to give a finale concentration of 1 uM and further incubated. The cortical neurons were treated in a likewise manner on DIV9 and DIV11. At DIV12 half the media was removed and 3-(4,5-dimethylthiazole-2-yl)-2,5-diphenyltetrazolium bromide (MTT) was added to the media to give a finale concentration of 0.5 mg/mL. MTT is reduced by mitochondrial enzymes in active cells to an insoluble product called formazan, which can be detected by colorimetry. Thus, the colour generated reflects activity and viable cells in the culture. The neurons were incubated for 4 hours with MTT and thereafter lysed in a 50% EtOH and 50% DMSO solution. To assure proper mixing of formazan, the plate was left to shake for 30 minutes before being measured at 570 nm and 650 nm. Student's t-test was used for statistical analysis.\nFurther, a drug-dose response on survival for peptide P1 was assessed in a similar manner."}, "[3]": {"system": "GRN(+/-) cortical neurons", "experiment": "Survival of GRN-deficient cortical neurons, MTT assay", "format": "cell-based, mouse", "conditions": "1 uM on DIV7, 9, 11, 13 and 15; MTT at DIV16"}, "CREB and AMPK": {"system": "CREB and AMPK", "experiment": "CREB and AMPK activation in brain of wild-type mice after subcutaneous injection", "format": "in vivo, mouse", "conditions": "3.6 mg/kg SC, separate study", "experimental": "To assess the subcutaneous administration route of peptide P1, 8 weeks old wild-type mice were subcutaneously injected with different doses ranging between 0.13 to 26 mg/kg of peptide P1 dissolved in 4.38 mM L-His, 140 mM NaCl, 0.2% Tween-20 and 1500 IU hyaluronidase (pH 6.15). Likewise, was an earlier lead peptide constituting a linear version of P1 attached to a cell-penetrating moiety (P9, SEQ ID NO: 9), tested for its ability to activate CREB in both striatum and hippocampus (in a separate study) following subcutaneous injection with 3.6 mg/kg. 2 hours after injection the mice were sacrificed by cervical dislocation and striatal tissue was isolated by dissection and snap frozen in liquid nitrogen and stored at −80° C. until further use. To assess the activation of CREB and AMPK, the tissue was lysed using a TissueLyser in lysis buffer containing cOmplete and DTT. The samples were subsequently homogenized by sonication. The phosphorylation of CREB on serine 133 and threonine 172 on AMPK was subsequently validated by western blotting and the levels of were normalized to beta-actin. Student's t-test was used for statistical analysis."}, "hippocampal neurons": {"system": "hippocampal neurons", "experiment": "Neuronal branching in wild-type hippocampal neurons", "format": "cell-based, mouse", "conditions": "DIV1 to DIV4", "experimental": "Hippocampal neurons were isolated from p0 wild-type mice and seeded in a density of 10.000 per well in 24-well trays containing poly-D and laminin coated coverslips. At DIV1 the neurons were treated with 0.1 uM or 1 uM P6. BDNF (1 nM) was used as a positive control. At DIV4 the neurons were fixed and immunostained for MAP2, a marker of dendrites. Pictures of MAP2 were taken of neurites with 20 neurons pr. coverslip. The neurites may not be in contact with other neurites from other neurons. The pictures were analysed in Imaris Software. The number branches were counted manually."}, "SV2A": {"system": "SV2A", "experiment": "SV2A levels in wild-type neurons, western blotting", "format": "cell-based, mouse", "conditions": "0.1 uM or 1 uM from DIV8 for 3 days", "experimental": "Hippocampal neurons were isolated from p0 wild-type mice and seeded in a density of 250,000 per well in 12-well trays precoated with poly-L and laminin. At DIV8 the neurons were treated with 0.1 uM or 1 uM P6 for 3 days. The neurons were lysed in RIPA buffer containing cOmplete and phosSTOP and SV2A levels were validated by western blotting, normalized to beta-actin."}, "[4]": {"system": "AMPK (T172) and CREB (S133)", "experiment": "P1 activation of AMPK and CREB with or without CaMKK2-inhibitor STO-609 in cortical neurons", "format": "cell-based, mouse", "conditions": "5 uM STO-609", "experimental": "Mouse cortical neurons were isolated from p0 wild-type mice and seeded in a density of 250,000 per well in a 12-well tray. After 7 days in vitro the neurons were either pre-treated with STO-609 (5 uM) for 1 hour or with DMSO (control). After 1 hour, the neurons were stimulated with P1 or a scrambled peptide (Scr), with or without STO-609, in neurobasal A media and incubated at 37° C. and 5% CO2 for 20 minutes. Hereafter, the neurons were lysed in lysis buffer containing DTT and cOmplete cocktail protease inhibitor. Phosphorylation of AMPK (T172) and CREB (S133) was validated by western blotting and normalized to beta-actin."}, "[5]": {"system": "spared nerve injury (SNI) model", "experiment": "Spared nerve injury mouse model, acute, von Frey test", "format": "in vivo", "conditions": "single SC dose 17 days post-SNI operation", "experimental": "(§2) To assess the effect of peptide P3 on neuropathic pain, the spared nerve injury (SNI) model was used. The threshold for mechanical pain response is determined by testing with von Frey filaments of increasing bending force, which are repetitively pressed against the lateral area of the paw. Two baseline measurements were made before SNI operation. In brief, the common peroneal and tibial branches of the sciatic nerve were ligated and cut distally to the ligation, just distal to the branching of the sural nerve, which was left untouched. The mechanical allodynia was subsequently assessed with von Frey testing 17 days post-surgery. […] Student's t-test was used for statistical analysis."}, "[6]": {"system": "spared nerve injury (SNI) model", "experiment": "Spared nerve injury mouse model, daily dosing, von Frey test", "format": "in vivo", "conditions": "single SC dose daily for 8 days from 1 day post-SNI operation", "experimental": "as §2\nMice, surgery and von Frey testing was performed as in Example 28.\nStudent's t-test was used for statistical analysis."}, "mouse brain homogenate": {"molecular_target": "mouse brain homogenate", "experiment": "brain homogenate binding: 2 uM P1, ultracentrifugation, LCMS"}, "[7]": {"molecular_target": "mouse plasma (plasma proteins)", "experiment": "plasma binding: 2 uM P1 in plasma, ultracentrifugation, LCMS"}, "[8]": {"molecular_target": "human plasma (plasma proteins)", "experiment": "plasma binding: 2 uM P1 in plasma, ultracentrifugation, LCMS; % Bound=100*(1-F/T4.5)"}},
  "note": "Where a SMILES comes first, the peptide text is derived from it.",
  "data": [
    {"molecule": "CSCC[C@H](NC(C)=O)C(=O)N[C@H](C(=O)N[C@@H](CCC(=O)O)C(=O)N1CCC[C@H]1C(=O)N[C@H](C(=O)N[C@@H](CCC(=O)O)C(=O)N[C@@H](Cc1c[nH]cn1)C(=O)N[C@@H](CCC(=O)O)C(=O)N[C@@H](CCC(=O)O)C(=O)N[C@@H](CC(=O)O)C(=O)N[C@H](C(N)=O)C(C)C)C(C)C)[C@@H](C)O", "note": "[LP1, Ac-MTEPVEHEEDV—NH2, reference compound] (Ac-MTEPVEHEEDV-NH2)", "values": [
      {"measurement": "activation of CREB (phosphorylation on serine 133) compared to scrambled peptide", "setting": "CREB [1]; 20 nM", "value": "activated CREB to a lesser extent"},
      {"measurement": "pCREB (S133) in hippocampus", "setting": "CREB [2]", "value": "increase phosphorylated CREB"},
      {"measurement": "pCREB (S133) in striatum", "setting": "CREB [2]", "value": "increase phosphorylated CREB"}
    ]},
    {"molecule": "[MIEPVEHEESR] [Peptide P4]", "values": [
      {"measurement": "relative survival compared to control", "setting": "cortical neurons", "value": "increased the relative survival"},
      {"measurement": "relative survival compared to control", "setting": "[3]", "value": "increased the relative survival"}
    ]},
    {"molecule": "[MTDPVDHDEDV] [Peptide P2]", "values": [
      {"measurement": "activation of CREB (phosphorylation on serine 133) compared to scrambled peptide", "setting": "CREB [1]; 1 uM", "value": "markedly activated CREB"},
      {"measurement": "relative survival compared to control", "setting": "cortical neurons", "value": "increased the relative survival"},
      {"measurement": "relative survival compared to control", "setting": "[3]", "value": "increased the relative survival"}
    ]},
    {"molecule": "YARAAARNARAEKEQEMTDPVDHDEDVQGAVQ (Linear peptide) [Peptide P9, reference compound]", "values": [
      {"measurement": "pCREB in hippocampus", "setting": "CREB and AMPK", "value": "not able to notably activate CREB"},
      {"measurement": "pCREB in striatum", "setting": "CREB and AMPK", "value": "not able to notably activate CREB"}
    ]},
    {"molecule": "[MIGSVEQEENA] [Peptide P6]", "values": [
      {"measurement": "neurite branching", "setting": "hippocampal neurons; 0.1 uM", "value": "increased neurite branching similar to BDNF"},
      {"measurement": "neurite branching", "setting": "hippocampal neurons; 1 uM", "value": "increased neurite branching similar to BDNF"},
      {"measurement": "activation of CREB (phosphorylation on serine 133) compared to scrambled peptide", "setting": "CREB [1]; 1 uM", "value": "markedly activated CREB"},
      {"measurement": "relative survival compared to control", "setting": "cortical neurons", "value": "increased the relative survival"},
      {"measurement": "SV2A levels", "setting": "SV2A", "value": "increased SV2A levels"},
      {"measurement": "relative survival compared to control", "setting": "[3]", "value": "increased the relative survival"}
    ]},
    {"molecule": "O=C(O)c1ccc2c3c1cccc3c(=O)n1c3ccccc3nc21", "note": "[STO-609, reference compound]", "values": [
      {"measurement": "AMPK phosphorylation following STO-609-treatment", "setting": "[4]", "value": "inhibition of AMPK"}
    ]},
    {"molecule": "[MTAPVAHAEDV] [Peptide P3]", "values": [
      {"measurement": "neuropathic pain, von Frey test", "setting": "[5]", "value": "attenuated the pain in an acute manner"},
      {"measurement": "neuropathic pain, von Frey test", "setting": "[6]", "value": "continuously reduced the neuropathic pain"}
    ]},
    {"molecule": "MTEPVEHEEDV (Cyclic (backbone): head-to-tail cyclized via the M amino acid residue in position 1 and the V amino acid residue in position 11)", "note": "[Cyclic peptide P1]", "values": [
      {"measurement": "brain homogenate binding", "setting": "mouse brain homogenate", "value": "< 20", "unit": "%"},
      {"measurement": "unbound in plasma", "setting": "[7]", "value": "> 75", "unit": "%"},
      {"measurement": "plasma binding", "setting": "[8]", "value": 20, "unit": "%"}
    ]},
    {"molecule": "BDNF (protein, UniProt P23560 19-247, looked up, neurotrophic factor used as a positive control) Neurotrophic factor BDNF …: APMKEANIRGQGGLAYPGVRTHGTLESVNGPKAGSRGLTSLADTFEHVIEELLDEDQKVRPNEENNKDADLYTSRVMLSSQVPLEPPLLFLLEEYKNYLDAANMSMRVRRHSDPARRGELSVCDSISEWVTAADKKTAVDMSGGTVTVLEKVPVSKGQLKQYFYETKCNPMGYTKEGCRGIDKRHWNSQCRTTQSYVRALTMDSKKRIGWRFIRIDTSCVCTLTIKRGR", "values": [
      {"measurement": "survival in drug-dose response study", "setting": "cortical neurons; BDNF as positive control", "value": "increased survival to a lesser extent than peptide P1"}
    ]}
  ]
}
